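Briefly, cells in 96-well plates were exposed to five compound concentrations for 48 h, and endpoints were estimated by linear interpolation. GI50: concentration for 50% inhibition of growth. TGI is the concentration that stops growth completely.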
Key:
Test in all cases: NCI tumour cell line growth inhibition, 48 h
UACC-62 melanoma = tested on: UACC-62 melanoma
UO-31 renal = tested on: UO-31 renal
HOP-62 NSCLC = tested on: HOP-62 NSCLC
SNB-19 CNS = tested on: SNB-19 CNS
K-562 leukemia = tested on: K-562 leukemia
HS 578T breast = tested on: HS 578T breast
SW-620 colon = tested on: SW-620 colon
T-47D breast = tested on: T-47D breast
OVCAR-4 ovarian = tested on: OVCAR-4 ovarian
IGROV1 ovarian = tested on: IGROV1 ovarian

SMILES	GI50 (UACC-62 melanoma) [µM]	TGI (UACC-62 melanoma) [µM]	GI50 (UO-31 renal) [µM]	TGI (UO-31 renal) [µM]	GI50 (HOP-62 NSCLC) [µM]	TGI (HOP-62 NSCLC) [µM]	GI50 (SNB-19 CNS) [µM]	TGI (SNB-19 CNS) [µM]	GI50 (K-562 leukemia) [µM]	TGI (K-562 leukemia) [µM]	GI50 (HS 578T breast) [µM]	TGI (HS 578T breast) [µM]	GI50 (SW-620 colon) [µM]	TGI (SW-620 colon) [µM]	GI50 (T-47D breast) [µM]	TGI (T-47D breast) [µM]	GI50 (OVCAR-4 ovarian) [µM]	TGI (OVCAR-4 ovarian) [µM]	TGI (IGROV1 ovarian) [µM]	GI50 (IGROV1 ovarian) [µM]
Cc1nn(-c2ccccc2)c(C)c1/C=N/N1CCN(Cc2ccccc2)CC1	33.8	> 100	66.4	> 100	16.3	74.4	> 100	> 100	31.2	> 100	> 100	> 100	> 100	> 100						
COc1cc(C2C(C(=O)OCc3ccccc3)=C(C)NC(C)=C2C(=O)OCc2ccccc2)cc(OC)c1OC	3.62	> 100	2.22	> 100	12.1	66.5	5.73	> 100			5.61	> 100			3.67	> 100	3.39	> 100		
COc1ccc2c([nH]c3cc(O)c(C)cc32)c1CC=C(C)C	9.11	> 25	14.3	> 25				> 25	5.78	24			6.75	20.7				> 25	> 25	
N#CC(C(=O)C(=O)Nc1ccc(Cl)c(Cl)c1)c1ccc(Cl)cc1 (stereo unspecified)		> 100		> 100		> 100		> 100		60.1				30.8					> 100	
CCOC(=O)/C(=C/c1ccc(Cl)cc1)N(CC)CC		> 100		> 100		> 100				> 100				> 100				> 100	> 100	
O=c1nc(-c2ccccc2)scc1-c1ccccc1		> 100		> 100		> 100		> 100		> 100				> 100				> 100	> 100	
CCC[CH2][Ge]([CH2]CCC)([CH2]CCC)[O]C(=O)C(OC(C)=O)c1ccccc1 (stereo unspecified)	1.64	15.6	1.5	18.5	2.18	16.1	12	36.9	0.202	> 34			4.59	20.6			0.166	20.2	25.8	11.2
Cc1cn2c(/C=N/N=C(N)N)c(-c3cc(Cl)sc3Cl)nc2s1							1.84	> 50												
CC1=C2[C@@H](c3ccccc3)C3C=CC2(c2ccccc23)N(C(=O)Nc2cccc3ccccc23)C1=O (stereo partly specified)		> 100		> 100		> 100		> 100		> 100				> 100				> 100	> 100	
O=C1C(Cl)=C(Nc2cccc(O)c2)C(=O)N1c1ccc(Cl)cc1Cl	21.4	57.7	50.7	> 100	32.8	> 100	29.9	> 100	22	58.1			17.3	38.3	43.6	> 100	43.2	> 100	51.5	22.5
Cc1ccc(C(O)/C(=N/N)c2nc3ccc([N+](=O)[O-])cc3[nH]c2=O)cc1 (stereo unspecified)		> 100		> 100		> 100		> 100		> 100				> 100				> 100	> 100	
CCc1cccc(CC)c1NC(=O)c1ccn2c1CCc1cnc(Nc3ccc(N4CCN(C)CC4)cc3OC)nc1-2	2.08	4.52	1.55	7.74			3.57	15.2			2.24	11	1.11	5.94	1.55	4.18	3.77	18.1	19.4	2.52
C[CH2][Sn]([Cl])([CH2]C)[CH2]C	0.515	11.5	1.65	4.05	1.04	4.14	1.97	10.6	0.718	5			0.57	10.9			1.41	11	5.22	0.646
C[C@]12CC/C(=N\OC(=O)Nc3ccccc3)C=C1CC[C@@H]1C2CC[C@@]2(C)C1CC[C@@H]2OC(=O)Nc1ccccc1 (stereo partly specified)		> 100		> 100				> 100		> 100				> 100				> 100	> 100	
N#Cc1nc(Nc2ccc(Cl)cc2)sc1N		42.8		26.8		46		> 100		48.6				> 69.1				> 72.5	> 88.9	
COc1cccc(N2C(=O)[C@H]3[C@H]4CC(C(C)(C)C)CC[C@H]4c4c([nH]c5ccccc45)[C@H]3C2=O)c1 (stereo partly specified)		28.3		35.5		31.7		33.9		29				41					39.1	
C/C=C/C=C\C(=O)C1c2cccc(O)c2C(=O)c2c(O)cc(C)cc21 (stereo unspecified)				3.08		4.27		2.5		> 100				2.55				3.3	2.91	
CO[C@]12CCC(=O)N1C=Cc1c2[nH]c2ccccc12		> 100		> 100		> 100		> 100		> 100				> 100				> 100	> 100	
COC(=O)C1=C(C)N(NC(=O)c2cccc(Cl)c2)C(C)(O)C12CCOC2=O (stereo unspecified)		> 100		> 100		> 100		> 100		> 100				> 100				> 100	> 100	
CCOC1=C2C(C)(CCC3[C@@]4(C)C=CC(=O)C(C)(C)C4CC(O)[C@@]23C)C(c2ccoc2)C1=O (stereo partly specified)		57.7		29.1		36.8		> 100		50.2				46.2				> 100	> 100	
O=[N+]([O-])c1cc([N+](=O)[O-])c(C(Cl)C(Cl)c2ccccc2)cc1C(Cl)C(Cl)c1ccccc1 (stereo unspecified)		3.7		2.93		11.9		6.53		3.58				3.46				7.28	7.53	

Source: PubChem BioAssay (NCI)
